Measured values: patent publication US20030212105A1, “Novel anti-fertility agent” (priority 2002, published 2003)

Assays:
female albino rats [1] = assay: Preovulatory effects of roxatidine acetate in female albino rats; type: in vivo, rat; settings: 2.5, 10, 15 & 20 mg/kg for 15 consecutive days before mating; dose group not stated
Protocol: Animals with normal estrus cycle were divided into […] with 10 animals in each group. Group I served as control and received distilled water orally. Animals in Group II, II, IV & V were administered roxatidine acetate at the doses of 2.5, 10, 15, & 20 mg/kg body weight respectively, for 15 consecutive days. During this period daily vaginal smears were taken to observe the regularity of the estrus cycle.
The females in all the groups were then paired with males of proven fertility. Daily vaginal smears were taken until the animals successfully mated. This was indicated by the presence of spermatozoa in the vaginal smears and this was taken as day 1 of pregnancy. On day 10 each animal was laprotomized and the no. of implants/resorption sites and the no. of corpora lutea were counted. The number of litters delivered at the end of the gestation period were 2.

[2] = Solubility in water (preparation of drug solution); type: physicochemical; settings: distilled water
female albino rats [3] = assay: Anti-implantation studies of roxatidine acetate in female rats (post coital); type: in vivo, rat
Protocol: Roxatidine was screened as a post coital anti-fertility agent on different days of pregnancy i.e. day 1st, days 1st-3rd day 4th i.e. day of ([…] days 1st-5th, days 1st-7th and day 15th-20th i.e. period of organogenesis) post coitum. The aim of the study was to determine the minimum possible dose of drug showing anti implantation activity and the specific days of gestation period when the activity is maximum studies were carried out in order to determine the possible mechanism of action of the drug. Further ELISA was conducted to assess the effects of roxatidine on the serum level of estrogen and progesterone respectively.
Daily vaginal smears of the female albino rats were taken and the regular periodicity of the estrus cycle was checked.
The animals were held, ventral side up and a drop of 0.9% saline was inserted into the vagina with the help of a Pasteur pipette, carefully, without damaging the vaginal wall to avoid false positive smears. The drop of normal saline was aspirated and replaced several times with the vaginal fluid, withdrawn and transferred to a microscopic slide. A coverslip was placed carefully on the smear avoiding the air bubble. The slide was then observed under a compound microscope (magnification-45×) and the stage of estrus cycle was determined.
Female rats in proestrus or estrus stage were housed with mature male rats (in the ratio 3 females:1 male). Each female was examined for the presence of spermatozoa in the early morning. The day on which this sign of mating is seen is taken as day 1 of pregnancy. The female was then separated and caged singly. Roxatidine was administered orally to the animal once daily on specific days of pregnancy at different concentrations.
Pregnant rats were divided into 5 groups of 10 animals each. To group I, which served as control, a constant volume of distilled water was administered orally with the help of a catheter. The drug namely, roxatidine was administered at doses of 2.5, 10, 15 & 20 mg/kg body weight orally, on specific days of pregnancy.
Fifty albino rats were divided into groups of 10 animals each. Group I served as control and received distilled water. Group II to V received Roxatidine acetate at doses of 2.5,10,15 & 20 mg/kg body weight, orally respectively on day 1 postcoital with the help of a catheter.
On day 10 of pregnancy the animal was laprotomized and the number of implants present in both the uterine horns as well as the number of corpora lutea on each ovary was counted. The animals were allowed to complete the gestation period (usually 21-23 days) and the number of litters delivered, if any were counted In this case, 2 litters were delivered.
Fifty albino rats were divided into groups of 10 animals each. Group I served as control and received distilled water. Group II to V received Roxatidine acetate at doses of 2.5,10,15 & 20 mg/kg body weight, orally respectively on day 1-3 postcoital with the help of a catheter.
On day 10 of pregnancy the animal was laprotomized and the number of implants present in both the uterine horns as well as the number of corpora lutea on each ovary was counted.
Fifty albino rats were divided into groups of 10 animals each. Group I served as control and received distilled water. Group II to V received Roxatidine acetate at doses of 2.5,10,15 & 20 mg/kg body weight, orally respectively on day 4 postcoital with the help of a catheter.
On day 10 of pregnancy the animal was laprotomized and the number of implants present in both the uterine horns as well as the number of corpora lutea on each ovary was counted. The animals were allowed to complete the gestation period (usually 21-23 days) at the end of which 3 litters were found.
Fifty albino rats were divided into groups of 10 animals each. Group I served as control and received distilled water. Group II to V received Roxatidine acetate at doses of 2.5, 10, 15 & 20 mg/kg body weight, orally respectively on day 1-7 postcoital with the help of a catheter. […]

pregnant female rats = settings: cited from earlier work

Row | solubility in water [2] | SMILES | number of litters delivered at the end of the gestation period (female albino rats [1]) | number of litters found at end of gestation period (female albino rats [3]; 2.5, 10, 15 & 20 mg/kg orally on day 1-3 postcoital, gestation 21-23 days) | number of litters found at end of gestation period (female albino rats [3]; 2.5, 10, 15 & 20 mg/kg orally on day 1-5 postcoital, gestation 21-23 days) | number of litters found at end of gestation period (female albino rats [3]; 2.5, 10, 15 & 20 mg/kg orally on day 1-7 postcoital, gestation 21-23 days) | number of litters delivered at end of gestation period (female albino rats [3]; 2.5, 10, 15 & 20 mg/kg orally on day 1 postcoital, gestation 21-23 days, dose group not stated) | number of litters found at end of gestation period (female albino rats [3]; 2.5, 10, 15 & 20 mg/kg orally on day 4 postcoital, gestation 21-23 days, dose group not stated) | number of litters seen at end of gestation period (female albino rats [3]; 2.5, 10, 15 & 20 mg/kg orally on day 15-20 postcoital, gestation 21-23 days, dose group not stated) | inhibition of implantation (female albino rats [3]; administered in animal models) | anti-implantation effects (pregnant female rats; oral, daily for 1-7 days post coitum, pregnant female rats) | oestrogenic/anti-oestrogenic activity (pregnant female rats; rats)
1 | readily and completely soluble in water | CC(=O)OCC(=O)NCCCOc1cccc(CN2CCCCC2)c1 [Roxatidine acetate] | 2 | no litters were found | no litters were found | no litters were found | 2 | 3 | 2 | effective in inhibiting implantation |  | 
2 |  | CN/C(=N/CCSCc1nc[nH]c1C)NC#N [cimetidine] |  |  |  |  |  |  |  |  | exhibited anti-implantation effects | did not possess oestrogenic/anti-oestrogenic activity
